From patent US20030130280A1, “Treatment of acute myeloid leukemia with indolinone compounds” (SUGEN, Inc., priority 2001, published 2003)

Columns and labels:
Wild-type FLT-3 = biological target: T1, Wild-type FLT-3 (Homo sapiens, UniProt P36888); experiment: FLT-3 phosphorylation by immunoprecipitation/Western in RS411 cells; assay type: cell-based; for Wild-type FLT-3 (inhibition of phosphorylation): key: +++: very strong inhibition; ++: inhibition; +/−: weak inhibition; −: no inhibition
T1 construct: host or cells: RS411 (RS4;11)
T1 sequence (P36888 27-993): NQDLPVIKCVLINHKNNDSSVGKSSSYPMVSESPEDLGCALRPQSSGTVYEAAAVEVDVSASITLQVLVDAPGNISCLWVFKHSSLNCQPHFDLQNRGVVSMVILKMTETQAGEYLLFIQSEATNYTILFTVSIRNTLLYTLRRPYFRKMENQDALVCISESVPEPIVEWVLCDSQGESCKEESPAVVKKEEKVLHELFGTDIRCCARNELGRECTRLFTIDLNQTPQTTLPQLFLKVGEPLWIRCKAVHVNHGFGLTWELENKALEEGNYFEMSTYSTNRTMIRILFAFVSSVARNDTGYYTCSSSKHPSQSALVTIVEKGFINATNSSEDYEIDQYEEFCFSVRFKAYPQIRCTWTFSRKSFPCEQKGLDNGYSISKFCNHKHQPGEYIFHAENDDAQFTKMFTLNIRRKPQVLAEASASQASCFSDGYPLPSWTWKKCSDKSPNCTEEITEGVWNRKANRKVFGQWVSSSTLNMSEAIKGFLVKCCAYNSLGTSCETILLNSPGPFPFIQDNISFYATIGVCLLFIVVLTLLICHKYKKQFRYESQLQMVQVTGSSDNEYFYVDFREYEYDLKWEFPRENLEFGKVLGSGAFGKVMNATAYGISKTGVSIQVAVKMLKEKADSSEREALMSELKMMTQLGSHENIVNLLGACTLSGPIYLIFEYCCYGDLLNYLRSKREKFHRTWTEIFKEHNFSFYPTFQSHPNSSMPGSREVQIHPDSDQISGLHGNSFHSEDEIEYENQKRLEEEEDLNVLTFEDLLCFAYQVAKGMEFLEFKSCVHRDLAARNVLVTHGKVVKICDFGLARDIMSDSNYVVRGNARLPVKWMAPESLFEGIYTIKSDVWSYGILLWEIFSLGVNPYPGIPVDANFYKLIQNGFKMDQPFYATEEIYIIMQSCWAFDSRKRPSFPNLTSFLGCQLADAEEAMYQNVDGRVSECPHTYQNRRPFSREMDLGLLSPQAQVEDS
Method: FLT-3 was immunoprecipitated from lysates with a commercially available antibody. Proteins were separated by SDS-polyacrylamide gel electrophoresis, transferred to membranes analyzed by Western blotting for phosphotyrosine and subsequently for total FLT-3 protein as control. […]
Immunoprecipitation and Western Blot (IP/W) analysis: Cells were lysed in lysis buffer (20 mM Tris, pH 7.5; 137 mM NaCl; 10% glycerol; 1% NP-40; 0.1% SDS; 2 mM EDTA) containing protease and phosphatase inhibitors (50 mM sodium fluoride, 1 mM sodium orthovanadate, 2 mM Pefabloc, […], […], […], 4 mM leupeptin, and 4 mM pepstatin A). Equivalent amounts of protein were separated by SDS-PAGE, then transferred to nitrocellulose membranes. For analysis of FLT3 phosphorylation, equivalent amounts of protein from each sample were immunoprecipitated overnight at 4*C. with an agarose-conjugated anti-FLT3 antibody (Santa Cruz Biotechnology, Santa Cruz, Calif.). Immune complexes were washed (150 mM NaCl, 1.5 mM MgCl2, 50 mM HEPES, pH 7.5, 10% glycerol, 0.1% Triton X-100, and 1 mM EGTA) and following SDS-PAGE, proteins were transferred to nitrocellulose membranes. Membranes were probed with an anti-phosphotyrosine antibody (Upstate, Lake Placid, N.Y. or Transduction Laboratories, Lexington, Ky.) and then stripped with Restore Western Blot Stripping Buffer (Pierce, Rockford, Ill.). Membranes were reprobed with an anti-FLT3 antibody (Santa Cruz Biotechnology). Stat5 antibodies for immunprecipitation and Western blot analysis were from Upstate Biotechnology and Transduction labs respectively.

FLT-3 = biological target: T2, FLT-3 (Homo sapiens, UniProt P36888); experiment: FLT-3 ligand stimulated FLT-3 phosphorylation in OC1-AML5 cells; assay type: cell-based; conditions: FLT-3 ligand stimulated OC1-AML5 cells
T2 construct: The OC1-AML5 cell line which express FLT-3-wild type was obtained (Pharmacia); host or cells: OC1-AML5
T2 sequence (P36888 27-993): T1 sequence (P36888 27-993)
From the text: Cells were stimulated with FLT-3 ligand and lysed. FLT-3 was immunoprecipitated from lysates with a commercially available antibody. Proteins were separated by SDS-polyacrylamide gel electrophoresis, transferred to membranes and analyzed by Western blotting for phosphotyrosine and subsequently for total FLT-3 protein as control.

Stat5 = Stat5 activation by FLT-3 ligand in OC1-AML5 cells (IP/Western, Western, gel shift); assay type: cell-based; conditions: FLT-3 ligand stimulated
From the text: (§1) Activation of downstream pathways by FLT-3 ligand was also investigated, specifically for Stat5 and erk. Stat5 and Erk are downstream mediators of RTK signaling, and may provide readouts for FLT-3 signaling. Stat 5 is a transcription factor which regulates many genes involves in cell survival and proliferation. Erk½ are kinases on the Raf signaling pathway.

erk½ = erk½ phosphorylation in OC1-AML5 cells; assay type: cell-based
From the text: as §1

MV411 (ITD mutant FLT-3) = experiment: Apoptosis by PARP cleavage and caspase 3 staining, ITD-mutant cells; assay type: cell-based; conditions: PARP cleavage, caspase 3 staining
Method: Apoptosis was measured by analysis of PARP cleavage and by caspase 3 staining.

MV411 tumors = experiment: Subcutaneous MV411 tumor model, tumor growth; assay type: in vivo, athymic mice; conditions: within 4 days of treatment
Method: Tumor cells, MV411 in the example shown were implanted subcutaneously in the hindflank of athymic mice. […] For measurement of efficacy, tumor growth was measured at various subsequent time points using vernier calipers. For analysis of phosphorylation, tumors were resected following dosing (4 hours here), pulverized in liquid nitrogen and homogenized in lysis buffer. FLT-3 and Stat5 phosphorylation were measured by immunoprecipitation and Western blot analysis.
Athymic mice were injected subcutaneously with MV411 and RS411 cells to cause tumor formation.

MV4; 11 = experiment: VEGF production, MV4;11 cells; assay type: cell-based; conditions: for VEGF %: 0 uM = 100
OC1-AML5 = experiment: VEGF production, OC1-AML5 cells; assay type: cell-based; conditions: for VEGF %: 0 uM = 100

CCN(CC)CCNC(=O)c1c(C)[nH]c(/C=C2\C(=O)Nc3ccc(F)cc32)c1C [Compound 1, 5-(5-Fluoro-2-oxo-1,2-dihydro-indol-3-ylidenemethyl)-2,4-dimethyl-1H-pyrrole-3-carboxylic acid(2-diethylamino-ethyl)-amide]
Wild-type FLT-3 (inhibition of phosphorylation) (Wild-type FLT-3; RS411 cells, IP/Western): ++ | inhibition of wild-type FLT-3 phosphorylation (Wild-type FLT-3; in words): inhibits | FLT-3 phosphorylation (FLT-3): decreased | Stat5 activity (Stat5): inhibited | IL-3 dependent erk activation (erk½; IL-3 dependent): not inhibited | Phosphorylation of erk½ (erk½; activated by FLT-3 ligand): inhibited | apoptosis (MV411 (ITD mutant FLT-3)): causes apoptosis | tumor size (MV411 tumors): dramatically reduced tumor size to almost undetectable | VEGF mean sd (MV4; 11; CMPD 1 0.00 uM): 287.8 | VEGF % (MV4; 11; CMPD 1 0.00 uM): 83.0% | VEGF mean sd (MV4; 11; CMPD 1 0.01 uM): 65.4 | VEGF % (MV4; 11; CMPD 1 0.01 uM): 18.9% | VEGF mean sd (MV4; 11; CMPD 1 0.1 uM): 31.2 | VEGF % (MV4; 11; CMPD 1 0.1 uM): 9.0% | VEGF mean sd (MV4; 11; CMPD 1 1 uM): 30.5 | VEGF % (MV4; 11; CMPD 1 1 uM): 8.8% | VEGF mean sd (MV4; 11; CMPD 1 10 uM): 23.3 | VEGF % (MV4; 11; CMPD 1 10 uM): 6.7% | VEGF mean sd (OC1-AML5; CMPD 1 0.00 uM): 92.5 | VEGF % (OC1-AML5; CMPD 1 0.00 uM): 91.8% | VEGF mean sd (OC1-AML5; CMPD 1 0.01 uM): 35.6 | VEGF % (OC1-AML5; CMPD 1 0.01 uM): 35.3% | VEGF mean sd (OC1-AML5; CMPD 1 0.1 uM): 33.6 | VEGF % (OC1-AML5; CMPD 1 0.1 uM): 33.3% | VEGF mean sd (OC1-AML5; CMPD 1 1 uM): 28.3 | VEGF % (OC1-AML5; CMPD 1 1 uM): 28.0% | VEGF % (OC1-AML5; CMPD 1 10 uM): 15.5%
